Measurements taken from ChEMBL document CHEMBL1156829 (Proc Natl Acad Sci U S A, 2008).

Tests used:
Plasmodium falciparum [1] = experiment: NOVARTIS: Inhibition of Plasmodium falciparum 3D7 (drug-susceptible) proliferation in erythrocyte-based infection assay; type: functional, organism-based; settings: Plasmodium falciparum, 3D7
Plasmodium falciparum [2] = experiment: NOVARTIS: Inhibition of Plasmodium falciparum W2 (drug-resistant) proliferation in erythrocyte-based infection assay; type: functional, organism-based; settings: Plasmodium falciparum, W2; read-out: EC50
[3] = NOVARTIS: Cytotoxicity against human hepatocellular carcinoma cell line (Huh7); type: toxicity, cell-based, Huh-7; settings: Huh7 cells (hepatocellular carcinoma cell line)

| SMILES | EC50 (Plasmodium falciparum [1]) [nM] | EC50 (Plasmodium falciparum [2]) [nM] | CC50 [3] [nM] |
| --- | --- | --- | --- |
| CC(C)OCCCNc1sc(S(=O)(=O)c2ccccc2)nc1S(=O)(=O)c1ccc(Cl)cc1 | 94.1 | 58.1 | > 100000 |
| COc1ccccc1C=CC1=NC(=Cc2ccc(SC)cc2)C(=O)O1 | 2040 | 2510 | > 100000 |
| OC(COc1ccc(OCC(O)CN2CCN(C3c4ccccc4-c4ccccc43)CC2)cc1)CN1CCN(C2c3ccccc3-c3ccccc32)CC1 (centres undefined) | > 6190 | > 12500 | > 100000 |
| COC(=O)[C@@H]1C[C@@H](NC(=O)c2ccc(OC)cc2OC)CN1Cc1ccc(C)cc1C | 303 | 126 | > 100000 |
| COc1ccc(CCN2C(=O)N(CCN(C)C)C(=O)C23CCN(Cc2ccc(O)cc2)CC3)cc1 | 221 | 828 | 78500 |
| CC[n+]1c(C=C2C=CN(c3ccc(Cl)cc3)C=C2)ccc2ccccc21 | 725 | 1090 | > 10000 |
| CCOC(=O)C(C)Oc1cccc2c(=O)n(CC(=O)Nc3ccc(OC(F)(F)F)cc3)ccc12 (centres undefined) | > 1250 | > 1220 | > 10000 |
| CCN(CC)c1ccc2c(c1)OC(N)=C(C#N)C2c1ccsc1 (centres undefined) | > 9540 | > 12500 | > 100000 |
| Cc1ccccc1NC(=O)N(CCCNC(=O)CCl)c1ccccc1 | > 442 | 1770 | > 10000 |
| C=C[C@H]1CN2CC[C@H]1C[C@@H]2[C@@H](OC(=O)CC)c1ccnc2ccccc12 | 220 | 370 | > 10000 |
| CCCCc1ccc(Nc2ncnc3sc4c(c23)CCCC4)cc1 | 11400 | 3390 | > 100000 |
| CCN(CC)CCCC(C)Nc1ccnc2cc3ccccc3cc12 (centres undefined) | 90.1 | 933 | 21300 |
| COc1ccccc1N1C(=N)S/C(=C\c2ccc(OCc3ccccc3F)cc2)C1=O | 741 | 434 | > 10000 |
| CCC(c1nc2ccccc2c(=O)n1-c1ccc(Br)cc1)N(CCc1ccccc1)C(=O)c1cccc(C(F)(F)F)c1 (centres undefined) | 871 | 545 | > 10000 |
| c1ccc2c(NC3CCCC3)nc(Nc3ccc4c(c3)OCO4)nc2c1 | 525 | 753 | 12800 |
| Cn1c(COc2ccc(Cl)cc2Cl)[n+](C)c2ccccc21 | 261 | 773 | > 10000 |
| NCC(c1ccc(F)cc1)c1ccc(F)cc1 | > 345 | 99.8 | > 9210 |
| COc1ccc2sc(Nc3nc(-c4ccccn4)cs3)nc2c1 | 118 | 125 | 4400 |
| O=c1c2sccc2nc(SCc2cccc([N+](=O)[O-])c2)n1C1CC1 | 1250 | > 1520 | > 10000 |
| COc1cc(NC(C)CCCN(Cc2ccc(Cl)cc2)C(=O)Nc2cccc(C(F)(F)F)c2)c2ncccc2c1 (centres undefined) | 798 | 332 | > 4440 |
| Cc1ccc(O)c(NC(=O)c2cnn3c(C(F)(F)F)cc(-c4ccc(F)cc4)nc23)c1 | 10500 | 5720 | > 100000 |
| COc1cc(Nc2cncc(-c3ccc(C(N)=O)cc3)n2)cc(OC)c1OC | 29.5 | 50.1 | 25300 |
| C[n+]1cccc(/C=C2/c3ccccc3-c3ncccc32)c1 | 809 | 555 | > 10000 |

| SMILES | EC50 (Plasmodium falciparum [1]) [nM] | EC50 (Plasmodium falciparum [2]) [nM] | CC50 [3] [nM] |
| --- | --- | --- | --- |
| CCN(CC)CCCC(C)NCc1ccc(OCc2ccccc2)c(OC)c1 (centres undefined) | 771 | 494 | > 10000 |
| Nc1ccc(-c2nc3cc(-c4ccc5[nH]c(-c6ccc(N)cc6)nc5c4)ccc3[nH]2)cc1 | 579 | 234 | > 10000 |
| Cc1cc(Nc2ccc(C(=O)n3ccnc3)cc2)n2ncnc2n1 | > 1250 | > 347 | > 10000 |
| CCN(CC)CCCN(Cc1cc2c(C)cc(C)cc2[nH]c1=O)C(=S)NCCCN(C)C | 2090 | 1000 | > 100000 |
| O=C1C(NC2CCCC2)=C(N2CCOCC2)C(=O)c2ccccc21 | 119 | 139 | 37900 |
| CCCN1CCC(N2C[C@@H](NCc3ccc(OCc4ccccc4)cc3)C[C@H]2C(=O)NCCc2ccc3c(c2)OCO3)CC1 | 1070 | 701 | 3560 |
| N#Cc1cccc(C=CC(=O)O)c1 | > 12500 | 1220 | > 100000 |
| NC1=NC(c2ccccc2)N(c2ccccc2)C(N)=N1 (centres undefined) | 82.3 | 204 | > 100000 |
| Cc1ccc(COc2ccc3c(C#N)c4ccccn4c3c2)cc1 | 2090 | 1370 | > 100000 |
| COc1ccc(C2NCCc3c2[nH]c2ccccc32)cc1CSc1nc2ccccc2[nH]1 (centres undefined) | 1750 | 2590 | 20400 |
| Cc1ccc(-c2cc(-c3ccccc3)c(C#N)c(SCC(O)C[S+]([O-])Cc3ccccc3)n2)cc1 (centres undefined) | 7170 | 1650 | 39900 |
| OC1(C(F)(F)F)CC(c2ccccc2)=NN1c1nncc(-c2ccccc2)n1 (centres undefined) | 236 | 314 | > 10000 |
| c1cncc(-c2cc(NCCCn3ccnc3)nc(-c3ccncc3)n2)c1 | 1090 | 956 | > 10000 |
| Oc1ccc(Br)cc1CN1CCN(c2ccccn2)CC1 | 3170 | 438 | 34600 |
| CCc1nn(-c2ccccc2)c2nc(-c3cc(Br)ccc3O)c3cc(OC)c(OC)cc3c12 | 466 | 192 | > 100000 |
| CCOc1cc(-c2nc3c(=O)n(C)c(=O)nc-3n(C)n2)ccc1OC(C)C | 333 | 29.3 | > 10000 |
| CCOc1ccc2nc(C)cc(Nc3ccc(OC)cc3)c2c1 | 419 | 1150 | 8350 |
| CCOc1cc(C=NN=C(N)N)ccc1OCc1ccccc1 | 235 | 321 | 10100 |
| Cc1cc(C)c2cc(CN(CCN(C)C)C(=S)NCCCN(C)C)c(=O)[nH]c2c1 | 2010 | 2150 | > 100000 |
| CCOC(=O)c1cc(-c2ccc(OC)cc2)n(CCC(=O)Nc2cccc(C(C)=O)c2)c1C | 21.8 | 8.49 | > 100000 |
| Cc1c(Cl)cccc1-n1c(C(C)N(CCc2ccccc2)C(=O)COc2ccccc2)nc2ccccc2c1=O (centres undefined) | 614 | 701 | > 10000 |
| CN(Cc1ccccc1)C(=O)CSc1nc(NCc2ccccc2)c2ccccc2n1 | > 3030 | > 12500 | > 100000 |
| S=C(NN=Cc1ccccn1)NC1CC2C=CC1C2 (centres undefined) | 38.5 | 44.8 | 44300 |

| SMILES | EC50 (Plasmodium falciparum [1]) [nM] | EC50 (Plasmodium falciparum [2]) [nM] | CC50 [3] [nM] |
| --- | --- | --- | --- |
| COc1ccccc1Nc1nc(NCC2CCCO2)c2ccccc2n1 (centres undefined) | 1040 | 1570 | 29400 |
| COc1cccc2c1C(=O)c1c(O)c3c(c(O)c1C2=O)C[C@@](O)(C(=O)CO)C[C@@H]3O[C@@H]1C[C@H](N)[C@H](O)[C@H](C)O1 | 48.6 | 47.7 | 485 |
| Nc1nonc1-n1nnc(C(=O)NN=Cc2cc(Br)cs2)c1-c1ccccc1 | 692 | 1100 | > 100000 |
| O=C(Nc1ccccc1)NC1CC2CCCC(C1)N2CCc1ccccc1 (centres undefined) | 156 | 98.2 | > 10000 |
| c1ccc(Cc2cc[n+](Cc3ccccc3)cc2)cc1 | 144 | 72.5 | > 100000 |
| Fc1ccccc1Nc1nc(NCc2ccccc2)c2ccccc2n1 | 463 | 918 | 8860 |
| Cc1ccc(-c2nnc(N3CCOCC3)c3ccccc23)cc1S(=O)(=O)N1CCN(C)CC1 | > 1250 | > 1220 | > 10000 |
| CCCCCc1c(C)c(C#N)c2nc3ccccc3n2c1NCCN(CC)CC | > 1250 | 1320 | > 10000 |
| CCN1c2ccc([N+](=O)[O-])cc2N(CC)C1(C)c1ccccc1 (centres undefined) | 204 | 39.7 | 67600 |
| CC1CN(C(=O)CCCSc2nnc(Cc3ccccc3)n2-c2ccc(Cl)c(Cl)c2)CC(C)O1 (centres undefined) | > 12500 | 2230 | > 100000 |
| COc1ccccc1N1CCN(C2CCN(C3CCC(c4ccccc4)CC3)CC2)CC1 (centres undefined) | 293 | 670 | 20200 |
| CC[n+]1c(C)cc2c(sc3ccccc32)c1C | 1050 | 1870 | > 100000 |
| CC1(C)C=C(C23C=CC(C2)C2C(=C4CC(C)(C)NC(C)(C)C4)C=CC23)CC(C)(C)N1 (centres undefined) | 2230 | 1970 | 44700 |
| CSc1nc(N)nc(SC2C=CCCC2)c1C#N (centres undefined) | 7060 | > 12500 | > 100000 |
| COc1cc(-c2nc(-c3ccccc3)c(-c3cccc(C(F)(F)F)c3)[nH]2)cc(OC)c1O | 622 | 902 | 44900 |
| COc1ccc(NC(=O)CCCCCn2c(SCC(=O)NCC3CCCO3)nc3ccsc3c2=O)cc1 (centres undefined) | > 725 | > 1320 | > 10000 |
| Nc1nc(N)c2c(Oc3ccccc3)cccc2n1 | 448 | 26.7 | > 10000 |
| O=C(Nc1ccc(-c2nc3ccc(-c4nc5ccc(NC(=O)c6ccccc6[N+](=O)[O-])cc5[nH]4)cc3[nH]2)cc1)c1ccccc1[N+](=O)[O-] | > 1250 | 987 | > 10000 |
| Clc1ccccc1-c1nc([P+](c2ccccc2)(c2ccccc2)c2ccccc2)c(N2CCOCC2)o1 | 350 | 238 | 10100 |
| Cc1cc(Nc2cccc3ccccc23)nc(Nc2cccc3ccccc23)n1 | 274 | 395 | > 10000 |
| C[n+]1c(/C=C/c2ccc(F)cc2)ccc2ccccc21 | 104 | 90.7 | > 10000 |
| Cc1ccc(Sc2cc(C(=O)NCc3ccco3)c3ccccc3n2)cc1 | > 6980 | 6580 | > 100000 |
